Patent publication US8202875B2, “Selective insecticides based on substituted cyclic ketoenols and safeners” (Bayer Cropscience AG, priority 2004, dated 2012)

Columns and labels:
Type in all cases: in vivo
[1] = system: grain aphid (Metopolophium dirhodum); test: Metopolophium dirhodum test, spray application on barley plants
Text: (§1) The expected activity of a given combination of two active compounds can be calculated as follows (cf. Colby, S. R., “Calculating Synergistic and Antagonistic Responses of Herbicide Combinations”, Weeds 15, pages 20-22, 1967):
(§2) • X is the kill rate expressed in % of the untreated control when employing active compound A at an application rate of m ppm, • Y is the kill rate expressed in % of the untreated control when employing active compound B at an application rate of n ppm, • E is the kill rate expressed in % of the untreated control when using the active compounds A and B at application rates of m and n ppm,
(§3) If the actual insecticidal kill rate exceeds the calculated value, the kill of the combination is superadditive, i.e. a synergistic effect is present. In this case, the actually observed kill rate must exceed the value calculated using the above formula for the expected kill rate (E).
(§4) Adjuvant: rapeseed oil methyl ester (0.1% of a.i./l)
(§5) To prepare a suitable application solution, 1 part by weight of formulation is mixed with the appropriate amount of water and the adjuvant and the concentrate is diluted with water to the desired concentration. […]
(§6) After the desired period of time, the kill in % is determined. […] The determined kill rates are entered in Colby's formula.

[2] = system: cotton aphid (Aphis gossypii); test: Aphis gossypii test, spray application on cotton plants; conditions: 100 ppm
Text: as §1, §2, §3, §4, §5, §6

[3] = system: green peach aphid (Myzus persicae); test: Myzus persicae test, spray application on bell pepper plants
Text: as §1, §2, §3, §4
To prepare a suitable application solution, 1 part by weight of formulation is mixed with the appropriate amount of water and the adjuvant and the concentrate is diluted with water to the desired concentration.
Bell pepper plants (Capsicum sativum) which are heavily infested by the green peach aphid (Myzus persicae) are sprayed to runoff point with the desired concentration of the application solution.
After the desired period of time, the kill in % is determined. 100% means that all aphids have been killed; 0% means that none of the aphids have been killed. The determined kill rates are entered in Colby's formula.

[4] = system: bird cherry-oat aphid (Rhopalosiphum padi); test: Safener test after spraying: kill of aphids on barley (greenhouse); conditions: 100 g of a.i./ha, barley at 2-leaf stage, spray boom
Protocol: (§7) Method: Safener test after spraying
(§8) Solvent: 7 parts by weight of DMF
(§9) Emulsifier: 2 parts by weight of alkylaryl polyglycol ether
(§10) To produce a suitable preparation of active compound, 1 part by weight of active compound is mixed with the stated amounts of solvent and emulsifier, and the concentrate is diluted with tap water to the desired concentration. The desired amount of safener (in the case of mefenpyr-diethyl as WP 20) is mixed into the water used for dilution. Furthermore, 2 g of a.i./l of rapeseed oil methyl ester 500 EW are added. Leaves of winter barley at the 2-leaf stage which are infested by the bird cherry-oat aphid (Rhopalosiphum padi) are treated with the desired active compound and safener concentrations using a spray boom, the water application rate being […]. Per variant, the test is carried out at least twice. Evaluation is carried out after 7 d and/or 14 d by assessing the plant damage in % and the kill of the grain aphids in % compared to the untreated control. 100% damage means that the plant has died, and 0% means no damage. 100% effect on the grain aphids means that all aphids have been killed; 0% means that none of the aphids have been killed.
(§11) Results for greenhouse trials with safener after spraying against Rhopalosiphum padi on summer barley/winter barley

winter barley = test: Safener test after spraying: plant damage to barley (greenhouse); conditions: 100 g of a.i./ha
Protocol: as §7, §8, §9, §10, §11

C=CCN(CC=C)C(=O)C(Cl)Cl [Dichlormid a.i., 2,2-dichloro-N,N-di-2-propenyl-acetamide]
Kill rate in % after 7 d, found ([1]; 100 ppm): 0%
Kill rate in % after 7 d, found [2]: 0%
Kill rate in % after 7 d, found ([3]; 100 ppm): 0%

Clc1cc(Cl)nc(-c2ccccc2)n1 [Fenclorim a.i., 4,6-dichloro-2-phenyl-pyrimidine]
Kill rate in % after 7 d, found ([1]; 25 ppm): 0%
Kill rate in % after 7 d, found ([3]; 50 ppm): 0%

CC1(C)OC(c2ccco2)CN1C(=O)C(Cl)Cl (centres unmarked) [Furilazole a.i., 3-dichloroacetyl-5-(2-furanyl)-2,2-dimethyl-oxazolidine]
Kill rate in % after 7 d, found ([3]; 50 ppm): 0%

CCOC(=O)C1=NN(c2ccc(Cl)cc2Cl)C(C)(C(=O)OCC)C1 (centres unmarked) [mefenpyr-diethyl, diethyl 1-(2,4-dichloro-phenyl)-4,5-dihydro-5-methyl-1H-pyrazole-3,5-dicarboxylate]
Kill (%) 7 d [4]: 0%
Damage to new growth (%) 7 d (winter barley; 7 d): 0%
Damage (%) 7 d (winter barley; 7 d, 100% = plant has died): 0%
Damage to new growth (%) 14 d (winter barley; 14 d): 0%
Damage (%) 14 d (winter barley; 14 d, 100% = plant has died): 0%
